Numbered stars: 1 amine (or outer) side, 2 acyl side, 3 side chain; on linkers, the order of the positions; unused ones are H or OH. Bridge positions count the residues as written; N and C are the ends. Square brackets hold non-standard residues; d marks the D form. Peptide text beside a SMILES is read from it. * marks the point of attachment. hTyr(3S-OH,4S-OH,3'-OSO3H) = N[C@H](C(=O)O)[C@H](O)[C@@H](O)c1ccc(O)c(OS(=O)(=O)O)c1; Orn(4R-OH,5R-OH) = O=C([C@H](C[C@@H](O)[C@@H](O)N[*:3])N[*:1])[*:2]; Pro(3S-OH,4S-Me) = C[C@H]1CN[C@H](C(=O)O)[C@H]1O; X1 = CCCCCOc1ccc(-c2cc(-c3ccc(C(=O)*)cc3)no2)cc1; Gln(3R-OH) = NC(=O)C[C@@H](O)[C@H](N)C(=O)O; Hyp = O=C(O)[C@@H]1C[C@@H](O)CN1
Tested on: C. auris
Parameters: species or system mice
Settings: mouse, in vivo

**Q.** Which survival does the source give for `CCCCCOc1ccc(-c2cc(-c3ccc(C(=O)N[C@H]4C[C@@H](O)[C@@H](O)NC(=O)[C@@H]5[C@@H](O)[C@@H](C)CN5C(=O)[C@H]([C@H](O)CC(N)=O)NC(=O)[C@H]([C@H](O)[C@@H](O)c5ccc(O)c(OS(=O)(=O)O)c5)NC(=O)[C@@H]5C[C@@H](O)CN5C(=O)[C@H]([C@@H](C)O)NC4=O)cc3)no2)cc1` [micafungin] (X1-[Orn(4R-OH,5R-OH)]T[Hyp][hTyr(3S-OH,4S-OH,3'-OSO3H)][Gln(3R-OH)][Pro(3S-OH,4S-Me)]; lactam 1-C) here?
**A.** 20%
